Source: US11491155B2, “Salt of a pyrimido[6,1-A]isoquinolin-4-one compound” (VERONA PHARMA PLC, priority 2015, dated 2022)

Experiments:
[1] = Aerosol performance of DPI formulations (Cyclohaler, NGI); assay type: physicochemical
Protocol: Capsules were hand filled with 20 mg of the 1% w/w RPL554 free base or salt variants: lactose blends, i.e. 200 μg salt per capsule, the fill weight of each capsule was recorded. Due to differences in the molecular weights of the RPL554 salt forms, the amount of RPL554 emitted per actuation varied as a function of molecular weight. The formulations were prepared with no adjustment for differences in molecular weight of the salts.
The powders were delivered via the Cyclohaler® DPI (PCH Pharmachemie, BV, The Netherlands). The Cyclohaler® DPI is a low resistance device and was operated at a flow rate of 90 L/min for 2.7 seconds. The cut off diameters for the NGI collection stages were calculated for the 90 L/min flow rate using the NGI User Guide (MSP Corporation, 2008).
The ED, FPD and FPF were determined from inertial impaction tests performed following the deposition of 5 capsules of each formulation into the NGI. For each capsule tested the combined weight of the Cyclohaler® and capsule was determined before and after operation to check that the dose had been delivered. The NGI was fitted with a pre-separator for these determinations. The central cup of the pre-separator was filled with 15 mL of diluent. Following deposition, the solution was recovered in a 20 mL volumetric flask and made up to volume with diluent. RPL554 was quantitatively recovered from the device, induction port and each of the NGI collection stages with 10 mL of diluent.
The volume of diluent used for each sample was selected to ensure RPL554 concentrations were above the limit of quantitation.

[2] = Solubility of RPL554 and salts in pMDI propellant systems; assay type: physicochemical
Protocol: Quantitative assessment of the solubility of RPL554 and salt variants in the propellant systems of selected pMDI formulations (three replicates of each formulation) was performed. pMDIs were directly coupled to an adaptor fitted with a 0.20 μm filter unit connected, in series to a 21 G needle, which was inserted via a rubber septum, into a cooled multi-dose glass vial. A 19 G filter needle was inserted through the septum to aid evaporation of propellant from the vial. Prior to the filtration process the vial was cooled in a mixture of dry ice and acetone to ensure that the pressure within the vial was reduced in order to facilitate collection of the output from the pMDI. Ten consecutive actuations of the pMDI were fired through the filter and collected in the vial. Between actuations the canister was shaken for approximately 10 seconds. The pMDI unit was weighed before and after the filtering procedure. The filtrate was stored at room temperature and allowed to evaporate to dryness.
Samples were recovered by carefully rinsing the inside of the vials with 1 mL of recovery solution before transfer to HPLC vials for analysis. The estimated % of RPL554 solubilised within the canister was calculated from the starting mass of RPL554 within the canisters, which in turn was calculated using the theoretical molecular weight values of the RPL554 free base and salt variants shown in Table 13. The theoretical molecular weight estimates of the salts were provided by Verona.

[3] = Physico-chemical characteristics of salt candidates: solubility in water, pH of aqueous suspension/solution, form post water maturation; settings: listed as p-Toluene sulfonic
Protocol: The physico-chemical characteristics of the salt candidates were determined.

[4] = Solubility of RPL554 salts in saline solutions, water and aqueous buffer solutions at 25° C. (HPLC); assay type: physicochemical; settings: 24 hours
Protocol: The behaviour of salts of RPL554 were examined under the following conditions: • Phosphate buffered to pH 3.5 in saline, 0.9% w/w at 25° C. • Acetate buffered to pH 4.5 in saline, 0.9% w/w at 25° C. • Citro-Phosphate buffered to pH 4.5 in saline, 0.9% w/w at 25° C. • Phosphate buffered to pH 6.5 in saline, 0.9% w/w at 25° C. • Saline, 0.7, 0.9 and 1.1% w/w at 25° C. • Deionised water at 25° C.
RPL554 salts and RPL554, ca 50 mg, were suspended in the various aqueous media, 1 ml, with agitation at the specified temperatures for 24 hours. The solids were isolated and dried in vacuo at 45° C. The retained filtrates were examined by HPLC.
Additional RPL554 methane sulfonate salt, ca 50 mg, was charged to the water mixtures at 25° C. and 37.5° C. in order to afford a suspension. In all other cases, suspensions were obtained.
The solubility of the RPL554 was determined by HPLC using a single point calibration and is expressed as RPL554 and not as the salt and are detailed in Table 6 and Table 7 for the various conditions utilised.

[5] = RPL554 content and content uniformity of 1% w/w lactose powder blends; assay type: physicochemical
Protocol: Batches (approximately 5 g) of 1% w/w RPL554 free base or salt variants: lactose blends were prepared. In brief, the RPL554 free base or salt plus a small quantity of lactose was passed through a 38 μm sieve. The sieved material plus the remaining lactose was mixed in a glass mortar prior to transfer to a stainless steel screw cap jar and further mixing (10 minutes at 46 rpm) conducted using a Turbula blender. The composition of the dry powder blend was 0.05 g API and 4.95 g lactose.
In order to determine the content uniformity of the blends, aliquots (approx. 20 mg) of powder were sampled from each blend, accurately weighed, and diluted to volume in 10 mL volumetric flasks with diluent. The flasks were sonicated for 3 minutes before samples were transferred to HPLC vials for analysis.

[6] = Intrinsic dissolution of compressed tablet, pH 7.0, 37° C. (Sirius inForm); assay type: physicochemical; settings: pH 7.0, 0.15 M NaCl, 37° C.; listed as p-toluenesulfonate salt
Protocol: The dissolution assay (pH-dependent sample dissolution) was investigated using the Sirius inForm.
Dissolution of a compressed tablet of the compound was monitored in a pH 7.0 aqueous dissolution experiment (0.15 M NaCl) at 37° C. using UV-absorption spectroscopy in 2 hour experiments. A tablet with a diameter of 3 mm, requiring approximate weights of 10 mg was compressed under a weight of 100 kg load force. Only one face of the tablet was exposed to the dissolution medium, which contained a 0.01 M acetate/phosphate buffer system to minimise perturbation of the experimental pH from dissolution of the drug.
Stirring of the solution was continuous and at a constant rate of 100 rpm. The absorption data was converted to absolute sample weights using previously determined, pH-dependent, molar extinction coefficients. An appropriate wavelength range was chosen to ensure that spectroscopic data with an absorption value of <1.3 was analysed, avoiding erroneous dissolution results due to saturation of the UV light source.

[7] = Primary particle size analysis by laser light diffraction (Mastersizer 2000); assay type: physicochemical; settings: micronised, mean n=3
Protocol: A Mastersizer 2000 fitted with a Scirocco 2000 dry powder dispersion unit (Malvern Instruments Ltd, UK) was used to analyse the primary particle size of the micronised RPL554 and salt variants. The salts (50 mg) were automatically sampled via a vibrating feed control at a feeder rate of 60% and dispersed in compressed air at a pressure of 3 bar.

## COc1cc2c(cc1OC)-c1c/c(=N\c3c(C)cc(C)cc3C)n(CCNC(N)=O)c(=O)n1CC2 [p-Toluenesulfonate, RPL554 p-toluenesulfonate]
[1]; Cyclohaler, 5 capsules containing 20 mg powder blend, mass from weight change of capsule-loaded device
  †Measured Mass of 1% w/w Blend Delivered per capsule: 20.02 mg
[1]; Cyclohaler, NGI, mass determined from HPLC analysis of recovered samples, as RPL554 base
  ††RPL554 Emitted (μg) per capsule (B): 86.84 µg
[1]; calculated from delivered blend mass and measured blend content, as RPL554 base
  Calculated RPL554 Content (μg) per capsule (A): 130.46 µg
[2]; in HFA 134
  Calculated RPL554 solubilised (%): 0.08%
  Calculated Solubilised RPL554 μg per 50 μL actuation: 0.11 µg
[2]; in HFA 134, BLQ = below limit of quantitation (0.06 μg/mL)
  Solubility RPL554: 1.56 µg/g
[2]; in HFA 134, BLQ = below limit of quantitation (0.06 μg/mL), listed as p-toluensulfonate
  Solubility RPL554 (μg/g): quantifiable levels of solubility
[2]; in HFA 134 with Ethanol/Tween
  Estimated RPL554 solubilised (%): 7.20%
  Estimated Solubilised RPL554 μg per 50 μL actuation: 10.58 µg
  Solubility RPL554: 152.85 µg/g
[2]; in HFA 227
  Calculated RPL554 solubilised (%): BLQ
  Calculated Solubilised RPL554 μg per 50 μL actuation: BLQ
  Solubility RPL554 (μg/g): BLQ
[3]
  pH of aqueous suspension/solution: 3.40
[4]
  Solubility as RPL554 (mg/ml) in 0.7 w/w % Saline: 0.83 mg/mL
  Solubility as RPL554 (mg/ml) in 0.9 w/w % Saline: 0.62 mg/mL
  Solubility as RPL554 (mg/ml) in 1.1 w/w % Saline: 0.8 mg/mL
[4]; deionised water
  Solubility as RPL554 (mg/ml) in Water: 1.01 mg/mL
[5]; 1% w/w RPL554 variant: lactose powder blend, expressed as RPL554 base
  Measured Blend Content (% Theoretical): 88.66 % Theoretical
[5]; per 20 mg capsule of 1% w/w lactose blend, adjusted for measured blend content (% theoretical), as RPL554 base
  **Adjusted RPL554 Content per capsule: 130.33 µg
[6]
  Mass of salt (μg) dissolved after 2 hours, Average: 61.6 µg
  Mass of salt (μg) dissolved after 2 hours, Test 1: 51.2 µg
  Mass of salt (μg) dissolved after 2 hours, Test 2: 71.9 µg
[7]
  D (0.1) (μm): 0.47 μm
  D (0.5) (μm): 1.34 μm
  D (0.9) (μm): 4.53 μm
